Results published in patent US12509457B2, “Bicyclic nitrogen containing heterocycles as inhibitors of salt-induced kinase SIK2” (priority 2019, dated 2025).

Columns and labels:
Format in all cases: biochemical
[1] = molecular target: SIK1 (Homo sapiens, UniProt P57059); assay: SIK1 kinase assay, IMAP fluorescence polarization
[2] = molecular target: SIK3 (Homo sapiens, UniProt Q9Y2K2); assay: SIK3 kinase assay, IMAP fluorescence polarization
[3] = molecular target: SIK2 (Homo sapiens, UniProt Q9H0K1); assay: SIK2 kinase assay, IMAP fluorescence polarization
[4] = molecular target: Src (Homo sapiens, UniProt P12931); assay: Src kinase assay, IMAP fluorescence polarization
[5] = molecular target: Abl (Homo sapiens, UniProt P00519); assay: Abl kinase assay, IMAP fluorescence polarization
Sequence of Abl (P00519 whole entry): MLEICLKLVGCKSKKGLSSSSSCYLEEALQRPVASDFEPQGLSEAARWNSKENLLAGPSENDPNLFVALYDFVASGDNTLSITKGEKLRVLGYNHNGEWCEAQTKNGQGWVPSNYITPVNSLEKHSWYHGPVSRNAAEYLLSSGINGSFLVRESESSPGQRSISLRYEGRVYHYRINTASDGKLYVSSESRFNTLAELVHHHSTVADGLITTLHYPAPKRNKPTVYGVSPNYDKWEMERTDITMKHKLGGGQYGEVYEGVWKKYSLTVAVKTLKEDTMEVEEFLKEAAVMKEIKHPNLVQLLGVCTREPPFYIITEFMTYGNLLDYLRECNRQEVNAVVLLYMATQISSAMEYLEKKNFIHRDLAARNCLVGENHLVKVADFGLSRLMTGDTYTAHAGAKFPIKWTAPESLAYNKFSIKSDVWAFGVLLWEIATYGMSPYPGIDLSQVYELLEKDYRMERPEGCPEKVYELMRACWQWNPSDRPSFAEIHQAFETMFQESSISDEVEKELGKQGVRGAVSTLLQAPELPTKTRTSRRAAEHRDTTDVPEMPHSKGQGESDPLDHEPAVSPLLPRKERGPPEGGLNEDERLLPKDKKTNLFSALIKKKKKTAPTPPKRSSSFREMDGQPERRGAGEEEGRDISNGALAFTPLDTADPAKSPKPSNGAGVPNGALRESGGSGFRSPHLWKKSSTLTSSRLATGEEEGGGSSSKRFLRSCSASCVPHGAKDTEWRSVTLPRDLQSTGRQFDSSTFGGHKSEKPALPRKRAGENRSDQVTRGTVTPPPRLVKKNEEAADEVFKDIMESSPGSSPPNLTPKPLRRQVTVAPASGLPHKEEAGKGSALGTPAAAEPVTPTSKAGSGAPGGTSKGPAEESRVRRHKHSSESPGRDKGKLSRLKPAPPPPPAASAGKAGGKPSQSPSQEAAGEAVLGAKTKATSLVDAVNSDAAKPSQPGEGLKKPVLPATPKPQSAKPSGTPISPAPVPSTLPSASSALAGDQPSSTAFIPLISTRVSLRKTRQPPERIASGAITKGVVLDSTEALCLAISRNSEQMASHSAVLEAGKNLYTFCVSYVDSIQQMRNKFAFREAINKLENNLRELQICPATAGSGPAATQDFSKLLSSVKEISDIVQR

Sequence of Src (P12931 whole entry): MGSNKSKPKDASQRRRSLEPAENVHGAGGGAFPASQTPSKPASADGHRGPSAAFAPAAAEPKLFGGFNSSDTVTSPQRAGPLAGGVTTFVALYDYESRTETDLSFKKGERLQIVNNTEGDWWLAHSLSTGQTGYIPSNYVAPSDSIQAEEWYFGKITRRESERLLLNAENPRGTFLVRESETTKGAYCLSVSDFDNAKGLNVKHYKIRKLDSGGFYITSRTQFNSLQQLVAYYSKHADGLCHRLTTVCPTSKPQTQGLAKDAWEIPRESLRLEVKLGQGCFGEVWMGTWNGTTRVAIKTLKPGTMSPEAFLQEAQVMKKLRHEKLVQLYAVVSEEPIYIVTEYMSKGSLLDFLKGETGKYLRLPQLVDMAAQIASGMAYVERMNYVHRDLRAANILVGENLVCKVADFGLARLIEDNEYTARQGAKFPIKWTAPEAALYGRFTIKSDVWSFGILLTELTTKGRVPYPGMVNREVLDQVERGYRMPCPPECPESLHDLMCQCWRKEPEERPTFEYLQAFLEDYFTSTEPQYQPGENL
Sequence of SIK1 (P57059 whole entry): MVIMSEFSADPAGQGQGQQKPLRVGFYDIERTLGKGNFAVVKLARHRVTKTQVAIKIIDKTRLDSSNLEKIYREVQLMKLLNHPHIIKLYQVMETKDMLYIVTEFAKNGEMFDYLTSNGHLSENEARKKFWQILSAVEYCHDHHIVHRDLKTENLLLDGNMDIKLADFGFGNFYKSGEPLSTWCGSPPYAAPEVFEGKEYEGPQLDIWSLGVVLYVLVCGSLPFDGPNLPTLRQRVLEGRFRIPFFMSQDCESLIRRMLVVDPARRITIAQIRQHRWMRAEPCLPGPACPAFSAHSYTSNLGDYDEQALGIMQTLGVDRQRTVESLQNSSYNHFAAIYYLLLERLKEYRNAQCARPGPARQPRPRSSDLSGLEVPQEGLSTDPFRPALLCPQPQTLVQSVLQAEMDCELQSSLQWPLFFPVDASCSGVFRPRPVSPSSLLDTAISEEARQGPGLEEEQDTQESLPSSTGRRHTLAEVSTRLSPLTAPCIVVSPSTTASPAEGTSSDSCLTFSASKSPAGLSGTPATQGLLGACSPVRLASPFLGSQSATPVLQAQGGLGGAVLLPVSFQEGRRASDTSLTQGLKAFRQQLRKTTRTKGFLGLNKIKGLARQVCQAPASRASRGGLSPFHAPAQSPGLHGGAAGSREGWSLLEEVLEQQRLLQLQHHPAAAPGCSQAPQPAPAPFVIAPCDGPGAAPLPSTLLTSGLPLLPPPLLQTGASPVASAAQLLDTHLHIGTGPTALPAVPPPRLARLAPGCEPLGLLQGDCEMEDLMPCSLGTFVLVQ
Sequence of SIK3 (Q9Y2K2 whole entry): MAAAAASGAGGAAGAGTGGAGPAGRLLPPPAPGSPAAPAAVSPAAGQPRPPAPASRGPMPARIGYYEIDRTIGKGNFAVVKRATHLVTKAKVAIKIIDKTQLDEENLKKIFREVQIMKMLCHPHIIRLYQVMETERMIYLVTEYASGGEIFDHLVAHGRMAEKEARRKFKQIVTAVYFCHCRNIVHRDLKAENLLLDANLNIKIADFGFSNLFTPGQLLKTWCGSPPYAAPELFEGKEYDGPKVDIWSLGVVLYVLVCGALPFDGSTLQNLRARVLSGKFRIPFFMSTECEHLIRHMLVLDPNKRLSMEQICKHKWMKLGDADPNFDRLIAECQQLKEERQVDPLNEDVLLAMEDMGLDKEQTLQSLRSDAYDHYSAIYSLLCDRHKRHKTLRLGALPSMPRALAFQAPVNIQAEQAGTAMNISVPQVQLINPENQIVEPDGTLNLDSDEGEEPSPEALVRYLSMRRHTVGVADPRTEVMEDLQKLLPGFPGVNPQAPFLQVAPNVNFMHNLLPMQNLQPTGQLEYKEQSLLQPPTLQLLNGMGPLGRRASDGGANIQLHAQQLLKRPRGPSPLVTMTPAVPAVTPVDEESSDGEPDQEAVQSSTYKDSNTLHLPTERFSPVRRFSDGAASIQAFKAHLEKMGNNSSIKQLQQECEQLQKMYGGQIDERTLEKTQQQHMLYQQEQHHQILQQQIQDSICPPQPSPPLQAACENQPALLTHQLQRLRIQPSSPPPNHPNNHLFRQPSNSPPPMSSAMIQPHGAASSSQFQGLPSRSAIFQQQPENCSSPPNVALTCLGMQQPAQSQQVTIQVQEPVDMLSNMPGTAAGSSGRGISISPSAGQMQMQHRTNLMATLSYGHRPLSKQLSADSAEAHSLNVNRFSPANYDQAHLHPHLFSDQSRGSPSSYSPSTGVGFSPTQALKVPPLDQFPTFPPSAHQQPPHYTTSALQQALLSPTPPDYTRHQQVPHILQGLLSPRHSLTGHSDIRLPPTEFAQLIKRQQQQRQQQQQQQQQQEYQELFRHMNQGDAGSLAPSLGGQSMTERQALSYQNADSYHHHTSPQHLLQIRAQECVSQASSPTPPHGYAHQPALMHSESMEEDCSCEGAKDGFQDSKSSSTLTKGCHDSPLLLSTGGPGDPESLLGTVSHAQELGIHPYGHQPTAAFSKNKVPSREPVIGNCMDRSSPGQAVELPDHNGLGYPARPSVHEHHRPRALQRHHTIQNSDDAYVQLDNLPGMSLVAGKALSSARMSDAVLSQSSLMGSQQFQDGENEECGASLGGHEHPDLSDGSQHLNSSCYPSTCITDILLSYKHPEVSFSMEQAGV
Sequence of SIK2 (Q9H0K1 whole entry): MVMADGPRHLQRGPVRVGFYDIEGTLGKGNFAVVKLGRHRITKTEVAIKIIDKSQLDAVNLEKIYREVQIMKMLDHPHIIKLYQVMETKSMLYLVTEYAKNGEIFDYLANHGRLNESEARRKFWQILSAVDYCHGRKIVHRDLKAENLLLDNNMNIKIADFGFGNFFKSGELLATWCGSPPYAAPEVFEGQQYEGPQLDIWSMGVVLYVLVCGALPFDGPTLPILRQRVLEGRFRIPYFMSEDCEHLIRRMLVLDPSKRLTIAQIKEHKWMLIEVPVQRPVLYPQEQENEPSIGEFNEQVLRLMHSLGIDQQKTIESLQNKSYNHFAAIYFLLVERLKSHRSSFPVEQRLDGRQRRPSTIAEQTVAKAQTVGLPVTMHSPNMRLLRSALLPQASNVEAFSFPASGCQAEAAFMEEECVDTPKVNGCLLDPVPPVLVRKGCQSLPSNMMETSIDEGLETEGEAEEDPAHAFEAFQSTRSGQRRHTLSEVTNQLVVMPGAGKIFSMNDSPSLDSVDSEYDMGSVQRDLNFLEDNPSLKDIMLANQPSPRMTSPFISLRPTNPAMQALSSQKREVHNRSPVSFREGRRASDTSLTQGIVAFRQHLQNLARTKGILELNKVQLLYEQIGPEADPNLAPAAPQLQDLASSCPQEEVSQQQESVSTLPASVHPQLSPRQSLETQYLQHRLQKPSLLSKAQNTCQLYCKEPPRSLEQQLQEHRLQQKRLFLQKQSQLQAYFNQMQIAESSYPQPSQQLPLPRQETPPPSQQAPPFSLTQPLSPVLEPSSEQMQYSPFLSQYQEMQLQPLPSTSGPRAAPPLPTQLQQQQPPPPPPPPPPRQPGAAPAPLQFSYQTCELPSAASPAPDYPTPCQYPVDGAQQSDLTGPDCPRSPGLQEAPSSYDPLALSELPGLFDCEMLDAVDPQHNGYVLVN

| Compound | Ki [1] [nM] | Ki [2] [nM] | Ki [3] [nM] | Ki [4] [nM] | Ki [5] [nM] |
| --- | --- | --- | --- | --- | --- |
| Cc1cccc(F)c1N1Cc2cnc(N)cc2N(C2CCNCC2)C1=O [Example 1, 7-Amino-3-(2-fluoro-6-methyl-phenyl)-1-(4-piperidyl)-4H-pyrido[4,3-d]pyrimidin-2-one] | 1.68 | 1.79 | 0.248 | > 1000 | > 1000 |
| Cc1cccc(F)c1N1Cc2cnc(N)cc2N(C2CCN(C)CC2)C1=O [Example 3, 7-Amino-3-(2-fluoro-6-methyl-phenyl)-1-(1-methyl-4-piperidyl)-4H-pyrido[4,3-d]pyrimidin-2-one] | 0.632 | 0.975 | 0.239 | 387 | 122 |
| Cc1cccc(Cl)c1N1Cc2cnc(N)cc2N(C2CCNCC2)C1=O [Example 6, 7-amino-3-(2-chloro-6-methyl-phenyl)-1-(4-piperidyl)-4H-pyrido[4,3-d]pyrimidin-2-one] | 3.35 | 10.8 | 3.09 | 216 | 108 |
| Cc1cccc(Cl)c1N1Cc2cnc(N)cc2N(C2CCN(C)CC2)C1=O [Example 7, 7-amino-3-(2-chloro-6-methyl-phenyl)-1-(1-methyl-4-piperidyl)-4H-pyrido[4,3-d]pyrimidin-2-one] | 3.21 | 9.46 | 2.49 | 263 | 271 |
| Cc1cccc(F)c1N1Cc2cnc(N)nc2N(C2CCNCC2)C1=O [Example 11, 7-Amino-3-(2-fluoro-6-methyl-phenyl)-1-(4-piperidyl)-4H-pyrimido[4,5-d]pyrimidin-2-one] | 2.36 | 4.44 | 0.481 | 464 | 171 |
| Cc1cccc(Cl)c1N1Cc2cnc(N)nc2N(C2CCNCC2)C1=O [Example 15, 7-Amino-3-(2-chloro-6-methyl-phenyl)-1-(4-piperidyl)-4H-pyrimido[4,5-d]pyrimidin-2-one] | 6.23 | 18.7 | 1.63 | 138 | > 1000 |
| Cc1cccc(F)c1N1Cc2cncnc2N(C2CCNCC2)C1=O [Example 16, 3-(2-fluoro-6-methyl-phenyl)-1-(4-piperidyl)-4H-pyrimido[4,5-d]pyrimidin-2-one] | 223 | 489 | 92.2 | > 100000 | 4180 |
| Cc1cccc(Cl)c1N1Cc2cncnc2N(C2CCNCC2)C1=O [Example 17, 3-(2-chloro-6-methyl-phenyl)-1-(4-piperidyl)-4H-pyrimido[4,5-d]pyrimidin-2-one] | 273 | 1400 | 128 | > 100000 | 3950 |
| Cc1cccc(F)c1N1Cc2cnccc2N(C2CCNCC2)C1=O [Example 18, 3-(2-Fluoro-6-methyl-phenyl)-1-(4-piperidyl)-4H-pyrido[4,3-d]pyrimidin-2-one] | 12 | 21.2 | 8.2 | 1900 | 512 |
| Cc1cccc(F)c1N1Cc2cnc(N)nc2N(C2CCN(C)CC2)C1=O [Example 19, 7-Amino-3-(2-fluoro-6-methyl-phenyl)-1-(1-methyl-4-piperidyl)-4H-pyrimido[4,5-d]pyrimidin-2-one] | 9.73 | 4.12 | 0.739 | > 1000 | > 1000 |
| CCN1CCC(N2C(=O)N(c3c(C)cccc3F)Cc3cnc(N)nc32)CC1 [Example 20, 7-amino-1-(1-ethyl-4-piperidyl)-3-(2-fluoro-6-methyl-phenyl)-4H-pyrimido[4,5-d]pyrimidin-2-one] | 6.61 | 7.18 | 0.803 | > 1000 | > 1000 |
| Cc1cccc(Cl)c1N1Cc2cnc(N)nc2N(C2CCN(C)CC2)C1=O [Example 22, 7-amino-3-(2-chloro-6-methyl-phenyl)-1-(1-methyl-4-piperidyl)-4H-pyrimido[4,5-d]pyrimidin-2-one] | 10.6 | 27.8 | 3.07 | 265 | > 1000 |
| Cc1cccc(F)c1N1Cc2cnccc2N(C2CCN(C)CC2)C1=O [Example 24, 3-(2-fluoro-6-methyl-phenyl)-1-(1-methyl-4-piperidyl)-4H-pyrido[4,3-d]pyrimidin-2-one] | 20.6 | 24 | 8.97 | 2250 | > 10000 |
| CCN1CCC(N2C(=O)N(c3c(C)cccc3F)Cc3cnccc32)CC1 [Example 25, 1-(1-ethyl-4-piperidyl)-3-(2-fluoro-6-methyl-phenyl)-4H-pyrido[4,3-d]pyrimidin-2-one] | 33.2 | 36.3 | 17 | 2640 | > 10000 |
| Cc1cccc(F)c1N1Cc2cncnc2N(C2CCN(C)CC2)C1=O [Example 26, 3-(2-fluoro-6-methyl-phenyl)-1-(1-methyl-4-piperidyl)-4H-pyrimido[4,5-d]pyrimidin-2-one] | 586 | 895 | 192 | > 100000 | > 100000 |
| CCN1CCC(N2C(=O)N(c3c(C)cccc3F)Cc3cncnc32)CC1 [Example 27, 1-(1-ethyl-4-piperidyl)-3-(2-fluoro-6-methyl-phenyl)-4H-pyrimido[4,5-d]pyrimidin-2-one] | 635 | 956 | 210 | > 100000 | 4190 |
| Cc1cccc(Cl)c1N1Cc2cncnc2N(C2CCN(C)CC2)C1=O [Example 28, 3-(2-chloro-6-methyl-phenyl)-1-(1-methyl-4-piperidyl)-4H-pyrimido[4,5-d]pyrimidin-2-one] | 397 | 2220 | 213 | > 100000 | 6220 |
| CCN1CCC(N2C(=O)N(c3c(C)cccc3Cl)Cc3cncnc32)CC1 [Example 29, 3-(2-chloro-6-methyl-phenyl)-1-(1-ethyl-4-piperidyl)-4H-pyrimido[4,5-d]pyrimidin-2-one] | 207 | 1700 | 128 | > 100000 | 6490 |
| Cc1cccc(Cl)c1N1Cc2cnccc2N(C2CCN(C)CC2)C1=O [Example 32, 3-(2-chloro-6-methyl-phenyl)-1-(1-methyl-4-piperidyl)-4H-pyrido[4,3-d]pyrimidin-2-one] | 14.7 | 144 | 19.6 | 514 | > 10000 |
| CCN1CCC(N2C(=O)N(c3c(C)cccc3Cl)Cc3cnccc32)CC1 [Example 33, 3-(2-chloro-6-methyl-phenyl)-1-(1-ethyl-4-piperidyl)-4H-pyrido[4,3-d]pyrimidin-2-one] | 34.1 | 213 | 20.3 | 1540 | 4950 |
| Cc1cccc(Cl)c1N1Cc2cnccc2N(C2CCNCC2)C1=O [Example 66, 3-(2-chloro-6-methyl-phenyl)-1-(4-piperidyl)-4H-pyrido[4,3-d]pyrimidin-2-one] | 10.2 | 98.8 | 13.2 | 436 | 621 |
